Measurements reported in PMC5025650, “Comparison of research methods for functional characterization of insect olfactory receptors” (Scientific Reports, 2016).

How the values were obtained:
HassOR13/HassOrco [1] = target: T1, HassOR13/HassOrco (Helicoverpa assulta, UniProt A0A0B4ZYC6); experiment: two-electrode voltage clamp, Xenopus oocytes; assay type: cell-based; settings: weak agonist; with HassOrco; holding potential −80 mV; pH 7.6
T1 construct: gene OR13; called heterodimer; with Odorant receptor coreceptor
T1 sequence (A0A0B4ZYC6 1-425): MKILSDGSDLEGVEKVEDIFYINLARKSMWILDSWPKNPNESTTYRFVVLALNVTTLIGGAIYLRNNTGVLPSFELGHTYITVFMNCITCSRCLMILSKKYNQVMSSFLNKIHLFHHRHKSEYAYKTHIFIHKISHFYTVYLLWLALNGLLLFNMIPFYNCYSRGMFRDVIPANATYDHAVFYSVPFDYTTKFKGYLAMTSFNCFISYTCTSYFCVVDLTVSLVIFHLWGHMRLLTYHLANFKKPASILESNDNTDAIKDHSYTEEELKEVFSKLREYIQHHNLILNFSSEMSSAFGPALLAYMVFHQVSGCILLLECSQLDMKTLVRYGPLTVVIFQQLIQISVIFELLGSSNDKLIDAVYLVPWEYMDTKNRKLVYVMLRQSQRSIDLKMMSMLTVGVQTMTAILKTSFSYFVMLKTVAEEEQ
T1 sequence (A7UGE1 1-473 partner): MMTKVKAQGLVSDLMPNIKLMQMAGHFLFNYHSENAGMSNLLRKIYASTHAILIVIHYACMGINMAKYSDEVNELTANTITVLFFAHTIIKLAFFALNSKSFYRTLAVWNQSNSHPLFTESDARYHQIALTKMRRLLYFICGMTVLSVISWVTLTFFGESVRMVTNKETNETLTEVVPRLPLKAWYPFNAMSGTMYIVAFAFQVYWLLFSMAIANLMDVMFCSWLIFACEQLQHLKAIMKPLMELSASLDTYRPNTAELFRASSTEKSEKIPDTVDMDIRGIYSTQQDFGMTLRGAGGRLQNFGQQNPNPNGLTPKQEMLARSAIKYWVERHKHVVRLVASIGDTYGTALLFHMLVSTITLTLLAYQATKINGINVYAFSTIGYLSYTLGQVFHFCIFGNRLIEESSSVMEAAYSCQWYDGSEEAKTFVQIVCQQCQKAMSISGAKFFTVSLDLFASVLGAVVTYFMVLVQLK

HassOR13/HassOrco [2] = target: T1, HassOR13/HassOrco; experiment: two-electrode voltage clamp, Xenopus oocytes; assay type: cell-based

| Structure (SMILES) | current at 10^-4 M (HassOR13/HassOrco [1]) [nA] | EC50 (HassOR13/HassOrco [2]) [µM] |
| --- | --- | --- |
| CCCCCC/C=C\CCCCCCCC=O [Z9-16:Ald, (Z)-9-hexadecenal] | 72 ± 13 |  |
| CCCC/C=C\CCCCCCCCCC=O [Z11-16:Ald, (Z)-11-hexadecenal] |  | 68.4 |
| CCCC/C=C\CCCCCCCC=O [Z9-14:Ald, (Z)-9-tetradecenal] | 31 ± 8 |  |
